Source: patent US20130133650A1, “GAS-BASED TREATMENT FOR INFECTIVE DISEASE” (priority 2010, published 2013)

Assays:
Mycobacterium bovis BCG = settings: cited from earlier work
M. bovis BCG = type: cell-based, Mycobacterium bovis BCG; settings: jar flushed with gas, 1-24 hour (FIG. 5)
[1] = tested on: M. tuberculosis H37Rv inside THP-1 macrophage-like cells; experiment: Anaerobic shock of macrophage-like cells infected with M. tuberculosis, bacterial survival; settings: treatment for the indicated times (FIG. 3(A))
[2] = rabbit, in vivo
[3] = tested on: THP-1 macrophage-like cells; experiment: Viability of human macrophage-like cells following anaerobic shock (trypan blue exclusion); type: cell-based; settings: uninfected differentiated THP-1 cells, various treatment times (FIG. 3(B))
Protocol: THP-1 cells were grown and induced for differentiation as above. The monolayer of differentiated macrophage-like cells was dispersed by trypsinization, after which cell suspensions were transferred to Vacutainer tubes and shocked with anaerobic gas as described for bacterial cultures. At various times, 20-microliter aliquots of suspended cells (˜10^6 cells/ml) were mixed with an equal volume of Trypan Blue staining solution (0.4% Trypan blue, Sigma Chemicals CO., St. Louis, Mo.)). Total and blue cell numbers were determined by light microscopy using a hemocytometer.
Percent of white (live) cells was plotted relative to an untreated sample.

## NCCN(CCN)/[N+]([O-])=N/O [DETA-NO, diethylene-triamine-nitric oxide adduct]
Mycobacterium bovis BCG; pretreatment before anaerobic shock
  effect of pretreatment on anaerobic shock-caused cell death: not blocked
Mycobacterium bovis BCG; single treatment
  duration of sustained growth arrest: 72 h

## [HH] [hydrogen]
M. bovis BCG
  killing of bacteria on agar surface: killed

## [Ar] [argon]
[1]
  intracellular bacillary viability: only reduced bacillary viability moderately
[2]
  side-effect of one-lung anaerobic shock: no obvious side-effect
[3]
  macrophage viability (trypan blue exclusion): slightly reduced viability at long treatment times
